Measured values as given in PubChem BioAssay (NCI).
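All cell lines were grown in 96-well plates and treated with compound for 48 hours. GI50 = concentration required for 50% inhibition of growth. TGI is the concentration that stops growth completely.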

Assays:
Test in all cases: inhibition of tumour cell growth, NCI panel, 48 h; in the data active means GI50 below about 0.43 µM; inactive means the rest
786-0 renal = tested on: 786-0 renal
A498 renal = tested on: A498 renal
A549 NSCLC = tested on: A549 NSCLC
ACHN renal = tested on: ACHN renal
CAKI-1 renal = tested on: CAKI-1 renal
CCRF-CEM leukemia = tested on: CCRF-CEM leukemia
COLO 205 colon = tested on: COLO 205 colon
DU-145 prostate = tested on: DU-145 prostate
EKVX NSCLC = tested on: EKVX NSCLC
HCC-2998 colon = tested on: HCC-2998 colon
HCT-116 colon = tested on: HCT-116 colon
HCT-15 colon = tested on: HCT-15 colon
HL-60(TB) leukemia = tested on: HL-60(TB) leukemia
HOP-62 NSCLC = tested on: HOP-62 NSCLC
HOP-92 NSCLC = tested on: HOP-92 NSCLC
HS 578T breast = tested on: HS 578T breast
HT29 colon = tested on: HT29 colon
IGROV1 ovarian = tested on: IGROV1 ovarian
K-562 leukemia = tested on: K-562 leukemia
KM12 colon = tested on: KM12 colon
M14 melanoma = tested on: M14 melanoma
MALME-3M melanoma = tested on: MALME-3M melanoma
MCF7 breast = tested on: MCF7 breast
MDA-N = tested on: MDA-N
MOLT-4 leukemia = tested on: MOLT-4 leukemia
NCI-H23 lung = tested on: NCI-H23 lung
NCI-H460 lung = tested on: NCI-H460 lung
NCI/ADR-RES ovarian = tested on: NCI/ADR-RES ovarian
OVCAR-4 ovarian = tested on: OVCAR-4 ovarian
OVCAR-5 ovarian = tested on: OVCAR-5 ovarian
OVCAR-8 ovarian = tested on: OVCAR-8 ovarian
RPMI-8226 leukemia = tested on: RPMI-8226 leukemia
RXF 393 renal = tested on: RXF 393 renal
SF-268 CNS = tested on: SF-268 CNS
SF-295 CNS = tested on: SF-295 CNS
SK-MEL-28 melanoma = tested on: SK-MEL-28 melanoma
SK-MEL-5 melanoma = tested on: SK-MEL-5 melanoma
SK-OV-3 ovarian = tested on: SK-OV-3 ovarian
SNB-19 CNS = tested on: SNB-19 CNS
SNB-75 CNS = tested on: SNB-75 CNS
SR leukemia = tested on: SR leukemia
SW-620 colon = tested on: SW-620 colon
T-47D breast = tested on: T-47D breast
TK-10 renal = tested on: TK-10 renal
U251 CNS = tested on: U251 CNS
UACC-257 melanoma = tested on: UACC-257 melanoma
UO-31 renal = tested on: UO-31 renal
BT-549 breast = tested on: BT-549 breast
LOX IMVI melanoma = tested on: LOX IMVI melanoma
MDA-MB-231 breast = tested on: MDA-MB-231 breast
MDA-MB-435 = tested on: MDA-MB-435
NCI-H226 lung = tested on: NCI-H226 lung
NCI-H522 lung = tested on: NCI-H522 lung
OVCAR-3 ovarian = tested on: OVCAR-3 ovarian
PC-3 prostate = tested on: PC-3 prostate
SF-539 CNS = tested on: SF-539 CNS
SK-MEL-2 melanoma = tested on: SK-MEL-2 melanoma
SN12C renal = tested on: SN12C renal
UACC-62 melanoma = tested on: UACC-62 melanoma

Cc1c(NC(=O)CCCl)c(=O)oc2c(C)c3occc(=O)c3cc12
> 100000 nM: TGI (786-0 renal) | TGI (A549 NSCLC) | TGI (ACHN renal) | TGI (CAKI-1 renal) | TGI (CCRF-CEM leukemia) | TGI (COLO 205 colon) | TGI (DU-145 prostate) | TGI (EKVX NSCLC) | TGI (HCC-2998 colon) | TGI (HCT-116 colon) | TGI (HCT-15 colon) | TGI (HL-60(TB) leukemia) | TGI (HOP-62 NSCLC) | TGI (HOP-92 NSCLC) | TGI (HS 578T breast) | TGI (HT29 colon) | TGI (IGROV1 ovarian) | TGI (K-562 leukemia) | TGI (KM12 colon) | TGI (M14 melanoma) | TGI (MALME-3M melanoma) | TGI (MCF7 breast) | TGI (MDA-N) | TGI (MOLT-4 leukemia) | TGI (NCI-H23 lung) | TGI (NCI-H460 lung) | TGI (NCI/ADR-RES ovarian) | TGI (OVCAR-4 ovarian) | TGI (OVCAR-5 ovarian) | TGI (OVCAR-8 ovarian) | TGI (RPMI-8226 leukemia) | TGI (RXF 393 renal) | TGI (SF-268 CNS) | TGI (SF-295 CNS) | TGI (SK-MEL-28 melanoma) | TGI (SK-MEL-5 melanoma) | TGI (SK-OV-3 ovarian) | TGI (SNB-19 CNS) | TGI (SNB-75 CNS) | TGI (SR leukemia) | TGI (SW-620 colon) | TGI (T-47D breast) | TGI (TK-10 renal) | TGI (U251 CNS) | TGI (UACC-257 melanoma) | TGI (UO-31 renal)
76200 nM: TGI (A498 renal)

COC(=O)c1c2c(c[n+]([O-])c1C)C(=O)C(NCc1ccccc1)=CC2=O
8130 nM: TGI (HS 578T breast)
2570 nM: TGI (OVCAR-5 ovarian)
2250 nM: TGI (DU-145 prostate)
1220 nM: TGI (SN12C renal)
1120 nM: TGI (M14 melanoma)
3610 nM: TGI (A549 NSCLC)
2150 nM: TGI (SF-295 CNS)
294 nM: TGI (MALME-3M melanoma)
3030 nM: TGI (KM12 colon)
2560 nM: TGI (EKVX NSCLC)
1910 nM: TGI (PC-3 prostate)
2540 nM: TGI (BT-549 breast)
inactive: GI50 (786-0 renal) 1690 nM | GI50 (A498 renal) 1320 nM | GI50 (A549 NSCLC) 1120 nM | GI50 (ACHN renal) 1020 nM | GI50 (BT-549 breast) 1190 nM | GI50 (CAKI-1 renal) 1270 nM | GI50 (CCRF-CEM leukemia) 512 nM | GI50 (DU-145 prostate) 1050 nM | GI50 (EKVX NSCLC) 1060 nM | GI50 (HCC-2998 colon) 604 nM | GI50 (HOP-62 NSCLC) 1420 nM | GI50 (HOP-92 NSCLC) 1040 nM | GI50 (HS 578T breast) 2400 nM | GI50 (HT29 colon) 430 nM | GI50 (K-562 leukemia) 529 nM | GI50 (KM12 colon) 608 nM | GI50 (NCI-H226 lung) 1230 nM | GI50 (NCI-H23 lung) 485 nM | GI50 (OVCAR-5 ovarian) 1200 nM | GI50 (RPMI-8226 leukemia) 996 nM | GI50 (RXF 393 renal) 1050 nM | GI50 (SF-268 CNS) 998 nM | GI50 (SF-295 CNS) 885 nM | GI50 (SF-539 CNS) 457 nM | GI50 (SK-MEL-2 melanoma) 1190 nM | GI50 (SK-MEL-28 melanoma) 1600 nM | GI50 (SK-OV-3 ovarian) 1980 nM | GI50 (SNB-19 CNS) 1460 nM | GI50 (SNB-75 CNS) 1760 nM | GI50 (SR leukemia) 1290 nM | GI50 (TK-10 renal) 3170 nM | GI50 (U251 CNS) 510 nM | GI50 (UO-31 renal) 1250 nM
1530 nM: TGI (HCT-15 colon) | TGI (T-47D breast)
3180 nM: TGI (CAKI-1 renal)
1490 nM: TGI (IGROV1 ovarian)
4790 nM: TGI (SK-OV-3 ovarian)
376 nM: TGI (MDA-MB-435)
1320 nM: TGI (LOX IMVI melanoma)
1290 nM: TGI (SW-620 colon)
667 nM: TGI (HL-60(TB) leukemia)
1650 nM: TGI (NCI-H460 lung)
> 20300 nM: TGI (HT29 colon)
2000 nM: TGI (HCC-2998 colon)
1670 nM: TGI (SF-539 CNS)
924 nM: TGI (HCT-116 colon)
3290 nM: TGI (SK-MEL-28 melanoma)
3270 nM: TGI (SNB-75 CNS)
2270 nM: TGI (MDA-MB-231 breast)
2580 nM: TGI (UO-31 renal)
322 nM: TGI (SK-MEL-5 melanoma)
984 nM: TGI (COLO 205 colon)
3800 nM: TGI (786-0 renal)
active: GI50 (COLO 205 colon) 312 nM | GI50 (HCT-116 colon) 269 nM | GI50 (HCT-15 colon) 354 nM | GI50 (HL-60(TB) leukemia) 256 nM | GI50 (IGROV1 ovarian) 368 nM | GI50 (LOX IMVI melanoma) 279 nM | GI50 (M14 melanoma) 297 nM | GI50 (MALME-3M melanoma) 127 nM | GI50 (MCF7 breast) 224 nM | GI50 (MDA-MB-231 breast) 333 nM | GI50 (MDA-MB-435) 193 nM | GI50 (MOLT-4 leukemia) 412 nM | GI50 (NCI-H460 lung) 425 nM | GI50 (NCI-H522 lung) 310 nM | GI50 (NCI/ADR-RES ovarian) 302 nM | GI50 (OVCAR-3 ovarian) 256 nM | GI50 (OVCAR-4 ovarian) 232 nM | GI50 (OVCAR-8 ovarian) 311 nM | GI50 (PC-3 prostate) 274 nM | GI50 (SK-MEL-5 melanoma) 175 nM | GI50 (SN12C renal) 318 nM | GI50 (SW-620 colon) 319 nM | GI50 (T-47D breast) 327 nM | GI50 (UACC-257 melanoma) 257 nM | GI50 (UACC-62 melanoma) 334 nM
835 nM: TGI (OVCAR-4 ovarian)
7070 nM: TGI (TK-10 renal)
2650 nM: TGI (A498 renal)
2840 nM: TGI (NCI-H226 lung)
1160 nM: TGI (OVCAR-8 ovarian)
> 25800 nM: TGI (CCRF-CEM leukemia)
726 nM: TGI (MCF7 breast)
2590 nM: TGI (MOLT-4 leukemia)
2940 nM: TGI (HOP-62 NSCLC)
2480 nM: TGI (RXF 393 renal)
2720 nM: TGI (HOP-92 NSCLC)
1890 nM: TGI (U251 CNS)
3790 nM: TGI (RPMI-8226 leukemia)
2200 nM: TGI (ACHN renal)
796 nM: TGI (OVCAR-3 ovarian)
2770 nM: TGI (SNB-19 CNS)
1570 nM: TGI (NCI-H522 lung)
1060 nM: TGI (UACC-62 melanoma)
3940 nM: TGI (SF-268 CNS)
3350 nM: TGI (SK-MEL-2 melanoma)
2600 nM: TGI (NCI-H23 lung)
1370 nM: TGI (NCI/ADR-RES ovarian)
> 100000 nM: TGI (SR leukemia)
734 nM: TGI (UACC-257 melanoma)

C/C(=C\CNc1ncnc2nc(Cl)[nH]c12)CO
> 100000 nM: TGI (786-0 renal) | TGI (A498 renal) | TGI (A549 NSCLC) | TGI (ACHN renal) | TGI (CAKI-1 renal) | TGI (CCRF-CEM leukemia) | TGI (COLO 205 colon) | TGI (DU-145 prostate) | TGI (EKVX NSCLC) | TGI (HCC-2998 colon) | TGI (HCT-116 colon) | TGI (HL-60(TB) leukemia) | TGI (HOP-62 NSCLC) | TGI (HOP-92 NSCLC) | TGI (HS 578T breast) | TGI (HT29 colon) | TGI (IGROV1 ovarian) | TGI (K-562 leukemia) | TGI (KM12 colon) | TGI (LOX IMVI melanoma) | TGI (M14 melanoma) | TGI (MALME-3M melanoma) | TGI (MCF7 breast) | TGI (MDA-MB-231 breast) | TGI (MDA-MB-435) | TGI (MDA-N) | TGI (MOLT-4 leukemia) | TGI (NCI-H226 lung) | TGI (NCI-H23 lung) | TGI (NCI-H460 lung) | TGI (NCI-H522 lung) | TGI (NCI/ADR-RES ovarian) | TGI (OVCAR-3 ovarian) | TGI (OVCAR-4 ovarian) | TGI (OVCAR-5 ovarian) | TGI (OVCAR-8 ovarian) | TGI (PC-3 prostate) | TGI (RPMI-8226 leukemia) | TGI (RXF 393 renal) | TGI (SF-268 CNS) | TGI (SF-295 CNS) | TGI (SF-539 CNS) | TGI (SK-MEL-28 melanoma) | TGI (SK-MEL-5 melanoma) | TGI (SK-OV-3 ovarian) | TGI (SN12C renal) | TGI (SNB-19 CNS) | TGI (SNB-75 CNS) | TGI (SR leukemia) | TGI (SW-620 colon) | TGI (T-47D breast) | TGI (TK-10 renal) | TGI (UACC-257 melanoma) | TGI (UO-31 renal)
